Experimental findings from patent US6831061B2, “Apicidin-derivatives, their synthetic methods and anti-tumor compositions containing them” (priority 2000, dated 2004) are described below.

Data set [1] has as its system CCD-18Co (human normal colon cell line). The data set is described as follows: Cell growth inhibition assay (SRB assay), CCD-18Co. Conditions: for Growth inhibition IC50 / IC50: CCD-18Co normal cells, SRB assay; for Growth inhibition IC50: 48 hours; for IC50: Homo sapiens, CCD-18Co, 48 h. The data set is classed as cell-based. On the procedure:
(§1) HeLa (human cervical cancer cell line), v-ras-transformed NIH3T3 (mouse fibroblast cell line), Colon 3.1-M26 (mouse colon cancer cell line), MG63 (human osteosarcoma cell line) and MCF-7 (human breast cancer cell line) cells were cultured in DMEM (Dulbecco's modified Eagle's medium, produced by Life Technologies, Inc.). A2058 (human melanoma cell line), AGS (human gastric adenocarcinoma cell line), HBL-100 (human breast cancer cell line), CCD-18Co (human normal colon cell line) and LL86 (human normal lung cell line) cells were cultured in RPMI 1640 (Life Technologies, Inc.) in the presence of 10% FBS and 1% penicillin/streptomycin.
(§2) A cell growth inhibition assay according to sulforhodamine B (SRB) protein dye assay was carried out to examine the effects of apicidin derivative prepared in the Examples on mouse and human cancer cells. The cells were placed in wells and during cultivation were treated with 0.01, 0.1, 0.5, 1, and 2 μg/mL of apicidin, SD9801, SD9802, SD9803, the compound of Example 1, the compound of Example 2 and the compound of Example 3.
(§3) After 48 hours of cultivation, the media were removed from the well plates. The cells were fixed with 1 mL of 10% trichloroacetic acid at 4° C. washed 5 times with distilled water and completely dried in the air. The wells were treated with 0.4% SRB solution and died for 30 minutes at an ambient temperature. Subsequently, the wells were washed 5 times with distilled water and dried for 18 hours. To the respective wells, Tris-HCl (1 mL, 10 mM) was added to dissolve the proteins bonded to SRB. The contents of each well were removed and measured for their absorption at 490 nm.
On the technique in general: In SRB staining, fixed cells bind dye roughly in proportion to their protein.

Data set [2] relates to LL86 (human normal lung cell line). The data set is described as follows: Cell growth inhibition assay (SRB assay), LL86. It counts as cell-based. On the procedure:
as §1, §2, §3

Data set [3] deals with v-ras-transformed NIH3T3 (mouse fibroblast cell line). The data set is described as follows: Cell growth inhibition assay (SRB assay), v-ras-transformed NIH3T3. The data set is classed as cell-based. Conditions: NIH3T3, 48 h. On the procedure:
as §1, §2, §3

Data set [4] relates to AGS (human gastric adenocarcinoma cell line). The data set is described as follows: Cell growth inhibition assay (SRB assay), AGS. The data set is classed as cell-based. The following applies: 48 h. The procedure: as §1, §2, §3
Data set [5] deals with HBL-100 (human breast cancer cell line). The data set is described as follows: Cell growth inhibition assay (SRB assay), HBL-100. It counts as cell-based. The following applies: HBL-100, 48 h. On the procedure: as §1, §2, §3
Data set [6] relates to Colon 3.1-M26 (mouse colon cancer cell line). The data set is described as follows: Cell growth inhibition assay (SRB assay), Colon 3.1-M26. The data set is classed as cell-based. The following applies: for IC50: Mus musculus, 48 h. The procedure: as §1, §2, §3
Data set [7] has as its system Histone deacetylase purified from HeLa cells. The data set is described as follows: In vitro histone deacetylation assay. It counts as biochemical, human. Conditions: [3H]acetyl histone substrate, 37° C., 20 minutes; read-out: Histone deacetylase inhibition IC50. On the procedure: Histone deacetylase was purified from HeLa cells. The activity of histone deacetylase was measured according to a method known in the art—See, e.g., Inoue, A. et al., Biochem. Biophys. […] Here, histone with [^3H]acetyl group labeled with radio-active materials was used as a substrate for measurement of activity of histone deacetylase. After incubation at 37° C. for 20 minutes, [^3H]acetic acid released into medium was extracted with ethylacetate and quantified using a liquid radiation detection method.

For data set [8], the system named is A2058 (human melanoma cell line). The data set is described as follows: Cell growth inhibition assay (SRB assay), A2058. The data set is classed as cell-based. The following applies: for IC50: Homo sapiens, A2058, 48 h, read-out: Growth inhibition IC50, A2058 cancer cells, SRB assay, 48 hours. On the procedure: as §1, §2, §3
Data set [9] has as its system MCF-7 (human breast cancer cell line). The data set is described as follows: Cell growth inhibition assay (SRB assay), MCF-7. The following applies: MCF7, 48 h, read-out: Growth inhibition IC50, MCF-7 cancer cells, SRB assay, 48 hours. It counts as cell-based. On the procedure:
as §1, §2
(§4) After 48 hours of cultivation, the media were removed from the well plates. The cells were fixed with 1 mL of 10% trichloroacetic acid at 4° C. washed 5 times with distilled water and completely dried in the air. […] The contents of each well were removed and measured for their absorption at 490 nm.

Data set [10] relates to HeLa (human cervical cancer cell line). The data set is described as follows: Cell growth inhibition assay (SRB assay), HeLa. The data set is classed as cell-based. The following applies: 48 h, read-out: Growth inhibition IC50, HeLa cancer cells, SRB assay, 48 hours. On the procedure: as §1, §2, §4
In data set [11] the test system is MG63 (human osteosarcoma cell line). The data set is described as follows: Cell growth inhibition assay (SRB assay), MG63. The data set is classed as cell-based. Conditions: MG-63, 48 h, read-out: Growth inhibition IC50, MG63 cancer cells, SRB assay, 48 hours. The procedure: as §1, §2, §4
Setting [12] is: 48 h, read-out: Growth inhibition IC50, LL86 normal cells, SRB assay, 48 hours.
Setting [13] is: LL86 normal cells, SRB assay, 48 hours, read-out: Growth inhibition IC50.
Setting [14] is: v-ras-transformed NIH3T3 cancer cells, SRB assay, 48 hours, read-out: Growth inhibition IC50.
Setting [15] is: AGS cancer cells, SRB assay, 48 hours, read-out: Growth inhibition IC50.
Setting [16] is: HBL-100 cancer cells, SRB assay, 48 hours, read-out: Growth inhibition IC50.
The mark [17] stands for this setting: Colon 3.1-M26 cancer cells, SRB assay, 48 hours.
Setting [18] is: Colon 3.1-M26 cancer cells, SRB assay, 48 hours, read-out: Growth inhibition IC50.
[19] abbreviates: read-out: Growth inhibition IC50, v-ras-transformed NIH3T3 cancer cells, SRB assay, 48 hours.
[20] abbreviates: read-out: Growth inhibition IC50, AGS cancer cells, SRB assay, 48 hours.
Setting [21] is: read-out: Growth inhibition IC50, HBL-100 cancer cells, SRB assay, 48 hours.
[22] abbreviates: read-out: Growth inhibition IC50, Colon 3.1-M26 cancer cells, SRB assay, 48 hours.

Each structure is given as a SMILES string. Values after ≈ are worked out from the molar mass of the structure shown. Read-outs that look alike come from different tables or passages of the source.

For the molecule `CCC(CCCCCC1NC(=O)C2CCCCN2C(=O)C(C(C)CC)NC(=O)C(Cc2cn(OC)c3ccccc23)NC1=O)=NN` (stereo not shown) [Example 2, Hydrazone Derivative of Apicidin], the figures for the “Growth inhibition IC50” value in [1] and in [6] (setting [17]) were 8.51 µg/mL and 0.20 µg/mL, respectively. Further, the IC50 (in general, the concentration that inhibits the measured activity by half) in [1] is 4.27 to 18.2 µg/mL (≈ 6.69 to 28.6 µM); in data set [2] (setting [12]), 4.27 to 18.2 µg/mL (≈ 6.69 to 28.6 µM); in data set [2] (setting [13]) it was 16.3 µg/mL (≈ 25.6 µM); in data set [3] (setting [14]) it was under 0.2 µg/mL; in data set [4] (setting [15]), under 0.2 µg/mL; in data set [5] (setting [16]) it was under 0.2 µg/mL. Further, the figures for the IC50 in data set [6] (setting [18]) and in data set [7] were 0.2 to 2.07 µg/mL (≈ 0.314 to 3.25 µM) and 3 nM, respectively.

On to `CCC(CCCCCC1NC(=O)C2CCCCN2C(=O)C(C(C)CC)NC(=O)C(Cc2cn(OC)c3ccccc23)NC1=O)=NNC(C)(C)C` (stereo not shown) [Example 3, tert-butylhydrazone Derivative of Apicidin], for which the “Growth inhibition IC50” value was determined as 4.27 µg/mL in data set [1] and 0.21 µg/mL in data set [6] (setting [17]). Besides, the IC50 was 4.27 to 18.2 µg/mL (≈ 6.15 to 26.3 µM) in data set [1]; 4.27 to 18.2 µg/mL (≈ 6.15 to 26.3 µM) in data set [2] (setting [12]); 14.8 µg/mL (≈ 21.3 µM) in data set [2] (setting [13]); under 0.2 µg/mL in [3] (setting [14]); under 0.2 µg/mL in [4] (setting [15]); under 0.2 µg/mL in [5] (setting [16]). In addition, the values for the IC50 in [6] (setting [18]) and in [7] were 0.2 to 2.07 µg/mL (≈ 0.288 to 2.98 µM) and 25 nM, respectively.

On to `CCC(CCCCCC1NC(=O)C2CCCCN2C(=O)C(C(C)CC)NC(=O)C(Cc2cn(OC)c3ccccc23)NC1=O)=NNC(=O)NN` (stereo not shown) [Example 4, Carbohydrazone Derivative of Apicidin], for which the IC50 in [7] is 39 nM.

Consider `CCC(CCCCCC1NC(=O)C2CCCCN2C(=O)C(C(C)CC)NC(=O)C(Cc2cn(OC)c3ccccc23)NC1=O)=NNC(N)=O` (stereo not shown) [Example 1, Semicarbazone Derivative of Apicidin], for which the “times higher safety against normal cell growth than the parent compound, apicidin” value in data set [1] (normal cell growth) is “about 5 times”. The IC50 in data set [3] (setting [19]) is under 0.2 µg/mL; in data set [4] (setting [20]) it was under 0.2 µg/mL; in data set [8], 0.2 to 2.07 µg/mL (≈ 0.294 to 3.04 µM); in data set [5] (setting [21]), under 0.2 µg/mL; in [6] (setting [22]) it was 0.2 to 2.07 µg/mL (≈ 0.294 to 3.04 µM); in data set [7], 1 nM. In addition, the “Growth inhibition IC50” value in data set [8] (A2058 cancer cells, SRB assay, 48 hours) stood at 0.34 µg/mL; in data set [6] (setting [17]), 0.20 µg/mL.

As for `CCC(=O)CCCCC[C@@H]1NC(=O)[C@H]2CCCCN2C(=O)[C@H]([C@@H](C)CC)NC(=O)[C@H](Cc2cn(OC)c3ccccc23)NC1=O` [Apicidin, apicidin], the IC50 amounted to 2.36 µg/mL (≈ 3.78 µM) in [1]; 4.25 µg/mL (≈ 6.81 µM) in data set [2] (setting [12]); 0.18 µg/mL (≈ 0.289 µM) in [3] (setting [19]); 0.13 µg/mL (≈ 0.208 µM) in data set [4] (setting [20]); 0.55 µg/mL (≈ 0.882 µM) in data set [8]; 0.57 µg/mL (≈ 0.914 µM) in data set [5] (setting [21]). The IC50 in data set [9] amounted to 1.17 µg/mL (≈ 1.88 µM); in [10] it was 0.51 µg/mL (≈ 0.818 µM); in data set [11], 1.88 µg/mL (≈ 3.01 µM); in data set [6] (setting [22]) it was 0.17 µg/mL (≈ 0.273 µM).
